Test results as given in US20160045463A1, “USE OF METALLOPROTEASE INHIBITORS IN THE TREATMENT OF POLYCYSTIC LIVER DISEASES” (UNIVERSIDAD DE SALAMANCA, priority 2012, published 2016).

Legend:
[1] = test system: polycystic human cholangiocytes; experiment: MMP mRNA expression by quantitative PCR in the presence of IL-6, IL-8 or 17β-estradiol; type: cell-based
Procedure: (§1) To determine if the metalloproteolytic hyperactivity of polycystic human cholangiocytes is associated with changes in the pattern of expression of MMPs and their natural inhibitors, TIMPs, at the level of mRNA, this was analysed by quantitative PCR (i.e. qPCR) using the cDNA previously obtained as explained in Example 1, the gene expression of a total of 22 genes, including those containing the members of the metalloprotease family: MMP-1, MMP-2, MMP-3, MMP-7, MMP-8, MMP-9, MMP-10, MMP-11, MMP-13, MMP-14, MMP-15, MMP-16, MMP-17, MMP-18, MMP-24, MMP-25, MMP-26, MMP-27 and their natural inhibitors: TIMP-1, TIMP-2, TIMP-3, TIMP-4. Briefly, 4 μl of the cDNA were taken and 1.8 μl of a 10 μM solution of each primer (final concentration 0.9 μM) and 10 μl of FastSYBR® Green (Applied Biosystems) were added, adding sterile water (Braun) to reach a final volume of 20 μl. The amplification reactions were performed in a StepOne Plus (Applied Biosystems) thermo cycler following the standard protocol conditions for FastSYBR Green®.
(§2) The relative estimate of the mRNA levels of the genes of Table 2 were calculated from the PCR progression curve (fluorescence vs. cycle), where the cycle threshold or Ct was determined from when the fluorescence signal begins to increase exponentially. Thus to calculate the difference of relative expression of the normal and polycystic human cholangiocytes, the data obtained were analysed following the modified method of Livak and Schmittgen (Livak K J, et al. Methods 2001; 25:402), according to the following equation:
(§3) Relative values=1.8^(polycystic or normal cholangiocyte GAPDH−polycystic or normal cholangiocyte GEN)
(§4) Where the superscripts “GAPDH polycystic or normal cholangiocytes” and “Gene polycystic or normal cholangiocytes” correspond to the Ct for GAPDH and for each studied gene. The value of 1.8 (in place of 2) was used because it is assumed that the real efficiency of each amplification cycle is around 80% instead of 100%.
(§5) To analyse the effect of various stimuli on the metalloproteolytic activity of normal and polycystic human cholangiocytes cultures, a protocol similar to that described before in Example 2 was followed, but in this case the incubation of the cells was with quiescent medium (i.e. DMEM/F12, […]) in the presence of the corresponding stimulus (Table 3). Next, the same procedure as described for the analysis of basal metalloproteolytic activity was followed as described in Example 2.
(§6) Taking into account the increase in metalloproteolytic activity induced by interleukins 6 and 8 and also the oestrogen 17β-estradiol in human cholangiocytes in culture, this was further investigated to determine if the increase in activity was correlated with an increase in gene expression at the level of mRNA of the various MMPs.

[2] = test system: normal human cholangiocytes; experiment: as above; type: cell-based
Procedure: as §1, §2, §3, §4, §5, §6

[3] = test system: polycystic human cholangiocytes; experiment: Metalloproteolytic activity of culture supernatants, ES001 fluorogenic peptide cleavage; type: cell-based; conditions: for metalloproteolytic activity in presence of stimulus: polycystic cholangiocytes vs basal, Table 3 final concentration: IL-6, IL-8 50 ng/ml, 17β-estradiol 1 nM/ml, VEGF, EGF, ENA-78, GRO-α 10 ng/ml, HGF 20 ng/ml, FIG. 9
Procedure: (§7) Metalloproteolytic or metalloprotease activity was measured in supernatants of cultures of normal human cholangiocytes and polycystic human cholangiocytes by an assay based on the cleavage of the ES001 fluorogenic synthetic peptide (R&D Systems Minneapolis, Minn., USA) that emits fluorescence proportional to metalloproteolytic activity. The substrate Mca-Pro-Leu-Gly-Leu-Dpa-Ala-Arg-NH2 [Mca: (7-Methoxycoumarin-4-yl)acetyl, Dpa: N-3-(2,4-Dinitrophenyl)-L-2,3-diaminopropionyl] (Knight C G, et al. FEBS Letters 1992; 296:263) is lysed between glycine and leucine by the action of the MMPs, especially MMP-1 (collagenase 1), MMP-2 (gelatinase A), MMP-7 (matrilysin), MMP-8 (collagenase 2), MMP-9 (gelatinase B), MMP-12 (macrophage elastase), MMP-13 (collagenase 3), MMP-14 (MT1-MMP), MMP-15 (MT2-MMP) and MMP-16 (MT3-MMP).
(§8) The basal metalloproteolytic activity of normal human cholangiocyte and polycystic human cholangiocytes cultures was determined by trypsinising the contents of 250 ml flasks and counting the number of cells in an inverted optical microscope using a Neubauer camera and a ½ dilution of the cell solution with trypan blue (Sigma). Next, 300,000 cells were seeded in each well of a 6-well plate and incubated with enriched DMEM/F-12 medium for 24 hours. After this time, the cells were washed with PBS and the culture medium changed for 2 ml of quiescent medium (DMEM/F-12, 1% FBS and 1% P/S) and incubated for 6 hours at 37° C./5% CO2. The supernatant was collected from each well and centrifuged at 4° C. for 10 minutes at 1,500 rpm to remove the dead cells present in the supernatant. The supernatant was concentrated 50 times using a 15 kDa (Millipore) Amicon Ultra concentrator. Next the concentrated supernatant was incubated for 2 hours at 37° C. with the ES001 fluorogenic peptide at a final concentration of 10 μM. Also, GM6001 (a global MMP inhibitor) and aprotinin (a global inhibitor of serine proteases) (both from Sigma-Aldrich) were used as controls of the specificity of the analysis of MMP activity in the assay. Recombinant MMP-10 (kindly provided by Dr. José Antonio Rodriguez Garcia, Laboratorio de Ateroesclerosis e Inflamación del CIMA, Universidad de Navarra) was used as a positive control and DMEM/F-12 medium without serum was used as the negative control. The fluorescence determination was kinetically measured in a Spectra MAX GeminiXS (Molecular Devices Sunnyvale, Calif., USA) spectrophotometer at excitation-emission wavelengths of 320-405 nm. The fluorescence intensity emitted by the culture medium was extracted from the metalloproteolytic activity values. The metalloproteolytic activity was calculated from the tangent to the curve of the fluorescence values using at least six different points over time for each type of cell and condition.
as §5
(§9) Taking into account that: i) basal activity of polycystic human cholangiocytes in culture is greater than that of normal human cholangiocytes and ii) that IL-6 and IL-8 increased the metalloproteolytic activity of normal and polycystic human cholangiocytes, the role of these two cytokines on metalloproteolytic hyperactivity of polycystic human cholangiocytes using antibodies against the receptors of IL-6 (IL6R) and/or IL-8 (CXCR1) was investigated. […]

[4] = test system: normal human cholangiocytes; experiment: as above; type: cell-based; conditions: for metalloproteolytic activity in presence of stimulus: normal cholangiocytes vs basal, Table 3 final concentration: IL-6, IL-8 50 ng/ml, 17β-estradiol 1 nM/ml, VEGF, EGF, ENA-78, GRO-α 10 ng/ml, HGF 20 ng/ml, FIG. 9
Procedure: as §7, §8, §5, §9

[5] = in vivo; cited from earlier work

## IL-6: cytokine interleukin 6, present in the cystic fluid
[1]
  expression of the other metalloproteinases 1, 8, 9, 14, 16, 18, 24 and 26: did not show changes
[1]; FIG. 10
  expression of MMP-2 (mRNA): increased
[1]; FIG. 11
  expression of MMP-3 (mRNA): increased
[1]; FIG. 12
  expression of MMP-7 (mRNA): increased
[1]; FIG. 13
  expression of MMP-10 (mRNA): none of the 3 molecules caused changes
[1]; FIG. 14
  expression of MMP-11 (mRNA): increased
[1]; FIG. 15
  expression of MMP-13 (mRNA): did not cause changes
[1]; FIG. 16
  expression of MMP-15 (mRNA): increased
[1]; FIG. 17
  expression of MMP-17 (mRNA): increased
[1]; FIG. 18
  expression of MMP-27 (mRNA): increased
[2]
  expression of the other metalloproteinases 1, 8, 9, 14, 16, 18, 24 and 26: did not show changes
[2]; FIG. 10
  expression of MMP-2 (mRNA): none of these modules induced changes
[2]; FIG. 11
  expression of MMP-3 (mRNA): unchanged
[2]; FIG. 12
  expression of MMP-7 (mRNA): None of the 3 molecules caused changes
[2]; FIG. 13
  expression of MMP-10 (mRNA): unchanged
[2]; FIG. 14
  expression of MMP-11 (mRNA): did not change
[2]; FIG. 15
  expression of MMP-13 (mRNA): did not cause changes
[2]; FIG. 16
  expression of MMP-15 (mRNA): did not change
[2]; FIG. 17
  expression of MMP-17 (mRNA): did not change
[2]; FIG. 18
  expression of MMP-27 (mRNA): did not change
[3]
  metalloproteolytic activity in presence of stimulus: increase
[4]
  metalloproteolytic activity in presence of stimulus: increase

## CC1=C(/C=C/C(C)=C/C=C/C(C)=C\C(=O)O)C(C)(C)CCC1 [13-cis-retinoic acid]
[3]; polycystic cholangiocytes, 13-cis-retinoic acid 10 μM/ml or Marimastat 200 μM/ml, p<0.01, FIG. 21
  basal metalloproteolytic activity in presence of inhibitor: inhibited
[4]; normal cholangiocytes, 13-cis-retinoic acid 10 μM/ml or Marimastat 200 μM/ml, p<0.01, FIG. 21
  basal metalloproteolytic activity in presence of inhibitor: inhibited

## VEGF
[3]
  metalloproteolytic activity in presence of stimulus: did not induce any change
[4]
  metalloproteolytic activity in presence of stimulus: did not induce any change

## O=C(C[C@H](CSc1ccccc1)C(=O)O)c1ccc(-c2ccc(Cl)cc2)cc1 [BAY-12-9566]
[5]
  half-life in plasma: 90 to 100 h

## EGF: epidermal growth factor
[3]
  metalloproteolytic activity in presence of stimulus: did not induce any change
[4]
  metalloproteolytic activity in presence of stimulus: did not induce any change

## GROα: growth-regulated oncogene a
[3]
  metalloproteolytic activity in presence of stimulus: did not induce any change
[4]
  metalloproteolytic activity in presence of stimulus: did not induce any change
